{"source": "paper PMC6631481", "about": "“De Novo Design and In Vitro Testing of Antimicrobial Peptides against Gram-Negative Bacteria” (Pharmaceuticals, 2019)", "assay_type_in_all_cases": "cell-based", "key": {"P. aeruginosa BB2013-100": {"system": "P. aeruginosa BB2013-100", "assay": "microbe, parasite or virus in culture", "description": "(§1) The following strains were used: P. aeruginosa (ATCC 27,853 and resistant strains: J4228 (R: Meropenem), BB2013-100 (FQR)); A. baumannii (Josh 28 and resistant strain Josh 230 (OXA-48); E. cloacae (resistant strains: BB2012-181(R: Meropenem), BB2013-32 (FQR)); E. aerogenes (resistant strain St. L P63 (NDM-1), E. asburiae/cloacae (resistant strain St. L P23 (NDM-1), K. pneumonia (J3702 and resistant strains: BB2009-209 (KPC-2), Oschner KP-1), Escherichia coli (BW25113 (7636) and resistant strains: JW55034 (11430) (Tol neg), BB2013-30 (R:carbapenem), ARLG-1012 (NDM)). Susceptibility testing was performed using non-cation adjusted MHB broth and polypropylene plates. Testing was also done in the presence and absence of acetic acid and BSA."}, "E. coli JW55034 (11430)": {"system": "E. coli JW55034 (11430)", "assay": "microbe, parasite or virus in culture", "conditions": "phenotype Tol neg, non-cation adjusted MHB broth, polypropylene plates, meropenem by standard CLSI method", "description": "as §1"}, "A. baumannii Josh 230": {"system": "A. baumannii Josh 230", "assay": "microbe, parasite or virus in culture", "description": "as §1"}, "A. baumannii Josh 28": {"system": "A. baumannii Josh 28", "assay": "microbe, parasite or virus in culture", "description": "as §1"}, "E. coli ARLG-1012": {"system": "E. coli ARLG-1012", "assay": "microbe, parasite or virus in culture", "description": "as §1"}, "E. aerogenes St. L P63": {"system": "E. aerogenes St. L P63", "assay": "microbe, parasite or virus in culture", "description": "as §1"}, "K. pneumoniae J3702": {"system": "K. pneumoniae J3702", "assay": "microbe, parasite or virus in culture", "description": "as §1"}, "E. cloacae BB2012-181": {"system": "E. cloacae BB2012-181", "assay": "microbe, parasite or virus in culture", "description": "as §1"}, "K. pneumoniae BB2009-209": {"system": "K. pneumoniae BB2009-209", "assay": "microbe, parasite or virus in culture", "description": "as §1"}, "E. coli BW25113 (7636)": {"system": "E. coli BW25113 (7636)", "assay": "microbe, parasite or virus in culture", "description": "as §1"}, "P. aeruginosa ATCC 27853": {"system": "P. aeruginosa ATCC 27853", "assay": "microbe, parasite or virus in culture", "description": "as §1"}, "[1]": {"system": "K. pneumoniae Oschner KP-1", "assay": "microbe, parasite or virus in culture", "description": "as §1"}, "P. aeruginosa J4228": {"system": "P. aeruginosa J4228", "assay": "microbe, parasite or virus in culture", "description": "as §1"}, "E. coli BB2013-30": {"system": "E. coli BB2013-30", "assay": "microbe, parasite or virus in culture", "description": "as §1"}, "E. cloacae BB2013-32": {"system": "E. cloacae BB2013-32", "assay": "microbe, parasite or virus in culture", "description": "as §1"}, "[2]": {"system": "E. asburiae/cloacae St. L P23", "assay": "organism not typed", "description": "as §1"}, "[3]": {"system": "Escherichia coli ATCC 25922", "method": "The MICs of the designed cationic peptides against Escherichia coli ATCC 25,922 strains were determined by the broth microdilution method, as described by Hancock et al.. All MIC evaluations were performed using Luria Bertani (LB) medium. Briefly, a range of each peptide concentrations (100 µg/mL, 50 µg/mL, 25 µg/mL, 12.5 µg/mL, 6.25 µg/mL, 3.125 µg/mL) was prepared by serial dilution in NaCl-depleted LB medium and added to an equal volume (250 µl) of exponentially grown bacterial culture, so that final bacterial suspension contained 5 × 10^5 CFU/mL. The samples were incubated in 2 mL polypropylene microtubes at 37 °C overnight at 300 rpm. The MIC was defined as the concentration at which no microbial growth was detected spectrophotometrically, via readings of optical density (OD) at 600 nm (Biotek ELX800 microplate reader). Growth medium containing only bacterial cells was used as a negative control. Each MIC test was carried out in two replicates and repeated three times."}}, "note": "Where two headings read alike, the source gives them in different places. Non-standard residues stand in square brackets, D forms with d. Residues, ends and D or L forms follow the SMILES beside them. No end group written: not given here.", "data": [{"molecule": "C[C@@H](O)[C@H]1C(=O)N2C(C(=O)O)=C(S[C@@H]3CN[C@H](C(=O)N(C)C)C3)[C@H](C)[C@H]12", "note": "[Meropenem, reference compound]", "values": [{"measurement": "MIC", "setting": "P. aeruginosa BB2013-100; Pseudomonas aeruginosa, BB2013100, P. aeruginosa BB2013-100, phenotype FQR, non-cation adjusted MHB broth, polypropylene plates, meropenem by standard CLSI method, read-out: MIC", "result": 1, "unit": "µg/mL"}, {"measurement": "MIC", "setting": "E. coli JW55034 (11430); Escherichia coli, read-out: MIC", "result": "≤ 0.125", "unit": "µg/mL"}, {"measurement": "MIC", "setting": "A. baumannii Josh 230; Acinetobacter baumannii, JOSH230, A. baumannii Josh 230, phenotype OXA-48, non-cation adjusted MHB broth, polypropylene plates, meropenem by standard CLSI method, read-out: MIC", "result": 1, "unit": "µg/mL"}, {"measurement": "MIC", "setting": "A. baumannii Josh 28; Acinetobacter baumannii, JOSH28, A. baumannii Josh 28, phenotype Susceptible, non-cation adjusted MHB broth, polypropylene plates, meropenem by standard CLSI method, read-out: MIC", "result": 32, "unit": "µg/mL"}, {"measurement": "MIC", "setting": "E. coli ARLG-1012; Escherichia coli, ARLG1012, E. coli ARLG-1012, phenotype NDM, non-cation adjusted MHB broth, polypropylene plates, meropenem by standard CLSI method, read-out: MIC", "result": 64, "unit": "µg/mL"}, {"measurement": "MIC", "setting": "E. aerogenes St. L P63; Klebsiella aerogenes, ST.LP63, E. aerogenes St. L P63, phenotype NDM-1, non-cation adjusted MHB broth, polypropylene plates, meropenem by standard CLSI method, read-out: MIC", "result": 16, "unit": "µg/mL"}, {"measurement": "MIC", "setting": "K. pneumoniae J3702; Klebsiella pneumoniae, K. pneumoniae J3702, phenotype Susceptible, non-cation adjusted MHB broth, polypropylene plates, meropenem by standard CLSI method, read-out: MIC", "result": "≤ 0.125", "unit": "µg/mL"}, {"measurement": "MIC", "setting": "E. cloacae BB2012-181; Enterobacter cloacae, BB2012181, E. cloacae BB2012-181, phenotype R: Meropenem, non-cation adjusted MHB broth, polypropylene plates, meropenem by standard CLSI method, read-out: MIC", "result": 16, "unit": "µg/mL"}, {"measurement": "MIC", "setting": "K. pneumoniae BB2009-209; Klebsiella pneumoniae, BB2009209, K. pneumoniae BB2009-209, phenotype KPC-2, non-cation adjusted MHB broth, polypropylene plates, meropenem by standard CLSI method, read-out: MIC", "result": 32, "unit": "µg/mL"}, {"measurement": "MIC", "setting": "E. coli BW25113 (7636); Escherichia coli, E. coli BW25113 (7636), phenotype WT, Tol parent strain, non-cation adjusted MHB broth, polypropylene plates, meropenem by standard CLSI method, read-out: MIC", "result": "≤ 0.125", "unit": "µg/mL"}, {"measurement": "MIC", "setting": "P. aeruginosa ATCC 27853; Pseudomonas aeruginosa, ATCC27853, P. aeruginosa ATCC 27853, phenotype CLSI Control, non-cation adjusted MHB broth, polypropylene plates, meropenem by standard CLSI method, read-out: MIC", "result": 1, "unit": "µg/mL"}, {"measurement": "MIC", "setting": "[1]; Klebsiella pneumoniae, K. pneumoniae Oschner KP-1, phenotype KPC-3, non-cation adjusted MHB broth, polypropylene plates, meropenem by standard CLSI method, read-out: MIC", "result": 16, "unit": "µg/mL"}, {"measurement": "MIC", "setting": "P. aeruginosa J4228; Pseudomonas aeruginosa, P. aeruginosa J4228, phenotype R: Meropenem, non-cation adjusted MHB broth, polypropylene plates, meropenem by standard CLSI method, read-out: MIC", "result": "> 64", "unit": "µg/mL"}, {"measurement": "MIC", "setting": "E. coli BB2013-30; Escherichia coli, BB201330, E. coli BB2013-30, phenotype R:carbapenem, non-cation adjusted MHB broth, polypropylene plates, meropenem by standard CLSI method, read-out: MIC", "result": 1, "unit": "µg/mL"}, {"measurement": "MIC", "setting": "E. cloacae BB2013-32; Enterobacter cloacae, BB201332, E. cloacae BB2013-32, phenotype FQR, non-cation adjusted MHB broth, polypropylene plates, meropenem by standard CLSI method, read-out: MIC", "result": 0.5, "unit": "µg/mL"}, {"measurement": "MIC", "setting": "[2]; E. asburiae/cloacae St. L P23, phenotype NDM-1, non-cation adjusted MHB broth, polypropylene plates, meropenem by standard CLSI method, read-out: MIC", "result": 16, "unit": "µg/mL"}]}, {"molecule": "CC[C@@H](C)[C@@H](NC(=O)[C@@H](C)N)C(=O)N[C@H](CCCCN)C(=O)N[C@@H](C(=O)N[C@H](CCCNC(=N)N)C(=O)N[C@H](CCCCN)C(=O)N[C@H](CC(C)C)C(=O)N[C@H](Cc1ccccc1)C(=O)N[C@H](CCCCN)C(=O)N[C@H](CCCCN)C(=O)N[C@H](CC(C)C)C(=O)N[C@H](CC(C)C)C(=O)N[C@H](CCCNC(=N)N)C(N)=O)[C@H](C)CC", "note": "[SP1D] (H-[dA][dI][dK][dI][dR][dK][dL][dF][dK][dK][dL][dL][dR]-NH2)", "values": [{"measurement": "MIC At NaCl", "setting": "[3]", "result": "12.5 to 25", "unit": "µg/mL"}, {"measurement": "MIC Without NaCl", "setting": "[3]", "result": "3.125 to 6.25", "unit": "µg/mL"}]}, {"molecule": "GWAKLITKAIKKI-NH2 [SP3]", "values": [{"measurement": "MIC", "setting": "P. aeruginosa BB2013-100; BB2013-100", "result": 32, "unit": "µg/mL"}, {"measurement": "MIC", "setting": "E. coli JW55034 (11430)", "result": 4, "unit": "µg/mL"}, {"measurement": "MIC", "setting": "A. baumannii Josh 230; Josh 230", "result": 16, "unit": "µg/mL"}, {"measurement": "MIC", "setting": "A. baumannii Josh 28; Josh 28", "result": 4, "unit": "µg/mL"}, {"measurement": "MIC", "setting": "E. coli ARLG-1012; ARLG-1012", "result": 4, "unit": "µg/mL"}, {"measurement": "MIC", "setting": "E. aerogenes St. L P63; St. L P63", "result": 16, "unit": "µg/mL"}, {"measurement": "MIC", "setting": "K. pneumoniae J3702; J3702", "result": 16, "unit": "µg/mL"}, {"measurement": "MIC", "setting": "E. cloacae BB2012-181; BB2012-181", "result": 16, "unit": "µg/mL"}, {"measurement": "MIC", "setting": "K. pneumoniae BB2009-209; BB2009-209", "result": ">32", "unit": "µg/mL"}, {"measurement": "MIC", "setting": "E. coli BW25113 (7636); BW25113", "result": 4, "unit": "µg/mL"}, {"measurement": "MIC", "setting": "P. aeruginosa ATCC 27853; ATCC 27853", "result": 8, "unit": "µg/mL"}, {"measurement": "MIC", "setting": "[1]; Oschner KP-1", "result": ">32", "unit": "µg/mL"}, {"measurement": "MIC", "setting": "P. aeruginosa J4228; J4228", "result": 16, "unit": "µg/mL"}, {"measurement": "MIC", "setting": "E. coli BB2013-30; BB2013-30", "result": 8, "unit": "µg/mL"}, {"measurement": "MIC", "setting": "E. cloacae BB2013-32; BB2013-32", "result": 16, "unit": "µg/mL"}, {"measurement": "MIC At NaCl", "setting": "[3]", "result": "25 to 50", "unit": "µg/mL"}, {"measurement": "MIC Without NaCl", "setting": "[3]", "result": "12.5 to 25", "unit": "µg/mL"}, {"measurement": "MIC", "setting": "[2]", "result": 32, "unit": "µg/mL"}]}, {"molecule": "HFKIRKRFVKKLV-NH2 [SP13]", "values": [{"measurement": "MIC At NaCl", "setting": "[3]", "result": ">100", "unit": "µg/mL"}, {"measurement": "MIC Without NaCl", "setting": "[3]", "result": "6.25 to 12.5", "unit": "µg/mL"}]}, {"molecule": "RLFIKKLKFITRR-NH2 [SP6]", "values": [{"measurement": "MIC At NaCl", "setting": "[3]", "result": "25 to 50", "unit": "µg/mL"}, {"measurement": "MIC Without NaCl", "setting": "[3]", "result": "3.125 to 6.25", "unit": "µg/mL"}]}]}
